Reference: PMC10107299, “Neutralizing the Impact of the Virulence Factor LecA from Pseudomonas aeruginosa on Human Cells with New Glycomimetic Inhibitors” (Angewandte Chemie (International Ed. in English), 2023)
Converted amounts (≈) assume the structure as drawn. “And” between values parts separate entries of the source, which are not always exact repeats. Equal entries are not always repeated.

Assays:
LecA [1] = target: T1, LecA (Pseudomonas aeruginosa, UniProt Q05097); test: Competitive binding assay based on fluorescence polarization
T1 construct: made in house
T1 sequence (Q05097 whole entry): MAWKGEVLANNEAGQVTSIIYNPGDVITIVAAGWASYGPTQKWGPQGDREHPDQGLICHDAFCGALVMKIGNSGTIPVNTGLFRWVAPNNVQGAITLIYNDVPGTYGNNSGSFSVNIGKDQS
Procedure: All synthesized galactosides were then evaluated for LecA inhibition using a competitive binding assay based on fluorescence polarization (Figure S1).[24]
Expression and purification of LecA as well as competitive binding by fluorescence polarization was performed as described by Joachim et al..[9] The assay was performed in TBS/Ca2+ buffer (20 mM Tris, 137 mM NaCl, 2.6 mM KCl at pH 7.4 supplemented with 1 mM CaCl2) in presence of 25% DMSO. Averages and standard deviations were calculated from at least three independent experiments. […]
RR OR In h i b i to r [µ M ]
R R In h i b i to r [µ M ] […]
R In h i b i to r [µ M ] 30 L2
30 F2 40 K2 In h i b i to r [µ M ] […]
In h i b i to r [µ M ] In h i b i to r [µ M ]
Figure S1: Evaluation of amide divalent LecA ligands in a competitive binding assay based on fluorescence […]
representative experiment is shown or each series. Averages and standard deviations from at least three independent titrations of triplicates each.
[…] Fluorescence polarization [mP] -1 0 1 2 3 0 1001010 Me-α-Gal pNO2-Ph-β-Gal 1000 Inhibitor [µM] Fluorescence polarization [mP])

LecA [2] = target: T1, LecA; test: Direct binding to immobilized LecA by surface plasmon resonance (SPR); details: for kon: SPR single-cycle kinetics, 25 °C, N=3 (I1 N=1); for Relative potency r.p. (SPR): compared to respective monovalent compound in each series
Procedure: K d values were oscillating with the number of methylene units present in the linker, presumably linked to the zig‐zag geometry of the hydrocarbon chain.
Expression and purification of LecA as well as competitive binding by fluorescence polarization was performed as described by Joachim et al..[9] […]
Surface plasmon resonance experiments were performed on a BIACORE X100 instrument (GE Healthcare) at 25 °C as described by Zahorska et. al..[8] Averages and standard deviations were calculated from three independent experiments. […]
Figure S3: SPR of divalent LecA ligands from benzene series. Sensorgrams obtained from SPR single-cycle kinetics experiments. Five different concentrations of each compound (0, 10, 50, 100, 200 nM) were sequentially injected to obtain the experimental sensorgrams (blue lines), which were then fitted by a 1:1 model (orange) on BIACORE evaluation software. […]
Figure S4: SPR of divalent LecA ligands from pyridine and sulfonated series. Sensorgrams obtained from SPR single-cycle kinetics experiments. Five different concentrations of each compound (0, 10, 50, 100, 200 nM) were sequentially injected to obtain the experimental sensorgrams (blue lines), which were then fitted by a 1:1 model (orange) on BIACORE evaluation software.
(also on this page, place not known: Response (RU)0 Response (RU)0 Response (RU) Response (RU) Response (RU) Response (RU) 030060090012001500) […]

[3] = Kinetic solubility in TBS/Ca2+ buffer (HPLC-MS); format: physicochemical; details: aqueous buffer, kinetic from dmso stock; TBS/Ca2+ buffer pH 7.4, 1 % DMSO, N≥3; read-out: Solubility S (kinetic)
Procedure: Next, we quantified the solubility of at least one representative of each new class and of one parent bisacylhydrazone in aqueous media (Table 1). […]
TBS/Ca2+ buffer (20 mM Tris, 137 mM NaCl, 2.6 mM KCl at pH 7.4 supplemented with 1 mM […]
(§1) CaCl2) in presence of 25% DMSO. […]
Kinetic solubility was determined on the analytical HPLC-MS using Compass QuantAnalysis quantification software (Bruker). Samples were prepared from DMSO stock solutions by dilution with TBS/Ca2+ buffer to 100 µM with 1% DMSO present. Samples were incubated on a shaker for 1 h at r.t., centrifuged (21380 g, 20 min), supernatants were diluted with DMSO (1:3), analyzed by HPLC-MS and fitted to the individual calibration curves.
Every experiment was repeated independently at least three times. […]

LecA [4] = target: T1, LecA; test: Isothermal titration microcalorimetry (ITC) with LecA; format: binding; details: for -TΔS (supplement) / ΔS: ITC average ± s.d.; for Relative potency r.p. (ITC): compared to respective monovalent compound in each series; for ΔG, individual titration / ΔH, individual titration: LecA 35-182 µM, ligand 100 µM-1.5 mM as headed
Text: Due to the high solubility of the propanamides in the pyridine series and the sulfonated ligand L2, we determined binding thermodynamics with LecA using isothermal titration microcalorimetry (ITC, Figure 3, Figures S5–S9). […] In both cases, the enthalpy of binding increased approximately twofold (I2: ΔH=−23.9±1.2 kcal mol^−1, L2: ΔH=−19.5±1.3 kcal mol^−1) compared to their monovalent analogues (G2: ΔH=−11.0±0.2 kcal mol^−1, K2: ΔH=−10.3±0.1 kcal mol^−1), while the binding entropy was increased approximately threefold (G2: −TΔS=3.8±0.2 kcal mol^−1 vs. I2: −TΔS=13.7±1.3 kcal mol^−1, K2: −TΔS=3.2±0.2 kcal mol^−1 vs. L2: −TΔS=9.4±1.3 kcal mol^−1).
Figure 3 Direct binding of selected ligands to LecA by ITC (N=3). Titration of LecA (50 μM) with divalent sulfonated ligand L2 (250 μM) is depicted. Relative potencies (r.p.) were calculated compared to respective monovalent compound in each series and […]. TEXT PRINTED IN THE PICTURE: G2: ΔG [kcal/mol]: -7.2 ± 0.1; ΔH [kcal/mol]: -11.0 ± 0.2; -TΔS [kcal/mol]: 3.8 ± 0.2; N: 1.07 ± 0.06; Kd [nM]: 5 270 ± 30; r.p.: 1 | I2: ΔG [kcal/mol]: -10.2 ± 0.2; ΔH [kcal/mol]: -23.9 ± 1.2; -TΔS [kcal/mol]: 13.7 ± 1.3; N: 0.43 ± 0.01; Kd [nM]: 35.1 ± 12.5; r.p.: 150 | J2: ΔG [kcal/mol]: -9.7 ± 0.2; ΔH [kcal/mol]: -13.5 ± 0.4; -TΔS [kcal/mol]: 3.8 ± 0.5; N: 0.61 ± 0.06; Kd [nM]: 79.5 ± 32.8; r.p.: 66 | K2: ΔG [kcal/mol]: -7.1 ± 0.1; ΔH [kcal/mol]: -10.3 ± 0.1; -TΔS [kcal/mol]: 3.2 ± 0.2; N: 1.08 ± 0.13; Kd [nM]: 6 230 ± 440; r.p.: 1 | L2: ΔG [kcal/mol]: -10.1 ± 0.1; ΔH [kcal/mol]: -19.5 ± 1.3; -TΔS [kcal/mol]: 9.4 ± 1.3; N: 0.52 ± 0.06; Kd [nM]: 39.9 ± 3.6; r.p.: 156 […]
Expression and purification of LecA as well as competitive binding by fluorescence polarization was performed as described by Joachim et al..[9] The assay was performed in TBS/Ca2+ buffer (20 mM Tris, 137 mM NaCl, 2.6 mM KCl at pH 7.4 supplemented with 1 mM […]
as §1
Isothermal titration calorimetry was performed on an iTC200 (Malvern Panalytical) and the data were analyzed using Microcal Origin software (Malvern Panalytical). LecA (50 - 180 […]
K2 and L2 and TBS/Ca2+ buffer supplemented with 5% DMSO for I2 and J2. Steep titration slopes achieved with the divalent ligands were the result of high amount of protein present and the high binding affinity of the ligand (high ‘value of c’).[10] However, LecA protein […]
low heat released upon binding. […]

[5] = ITC average, 25 °C, TBS/Ca2+ buffer (5% DMSO for I2 and J2), N=3
[6] = Kd (ITC), ITC average, 25 °C, TBS/Ca2+ buffer (5% DMSO for I2 and J2), N=3
[7] = Kd, individual titration, single ITC titrations, three per ligand
[8] = single ITC titrations, three per ligand

Structure (SMILES)	IC50 (LecA [1]) [nM]	Kd (LecA [2]) [nM]	koff (LecA [2]) [s⁻¹]	kon (LecA [2])	Relative potency r.p. (SPR) (LecA [2])	solubility kinetic at 1 h [3] [µM]	-TΔS (supplement) (LecA [4]; 25 °C) [kcal/mol]	ΔS (LecA [4]; 25 °C) [cal/mol/K]	N (stoichiometry) (LecA [4]; ITC average, 25 °C, N=3)	-TΔS (LecA [4]; [5]) [kcal/mol]	ΔG (LecA [4]; [5]) [kcal/mol]	ΔH (LecA [4]; [5]) [kcal/mol]	Kd (LecA [4]; [6]) [nM]	Kd (LecA [4]; [7])	Relative potency r.p. (ITC) (LecA [4])	N, individual titration (LecA [4]; [8])	ΔS, individual titration (LecA [4]; [8])	ΔG, individual titration (LecA [4]; [8])	ΔH, individual titration (LecA [4]; [8])
O=C(CCc1ccc(O[C@@H]2O[C@H](CO)[C@H](O)[C@H](O)[C@H]2O)cc1)Nc1ccc(OCCCOc2ccc(NC(=O)CCc3ccc(O[C@@H]4O[C@H](CO)[C@H](O)[C@H](O)[C@H]4O)cc3)cn2)nc1 [Compound I2]	3200 ± 1300	30.8 ± 1.5	0.00809 ± 0.00124	262 ± 28 x10^3/Ms	97	63.3 ± 4.2 (≈ 55.8 µg/mL)	13.7 ± 1.3	-45.9 ± 4.5	0.43 ± 0.01	13.7 ± 1.3	-10.2 ± 0.2	-23.9 ± 1.2	35.1 ± 12.5	48.3 nM and 38.8 nM and 18.3 nM	150	0.44 (2×) and 0.43	-51.6 cal/mol/K and -40.6 cal/mol/K and -45.6 cal/mol/K	-10.0 kcal/mol and -10.1 kcal/mol and -10.6 kcal/mol	-23.6 kcal/mol and -25.5 kcal/mol and -22.7 kcal/mol
O=C(CCc1ccc(O[C@@H]2O[C@H](CO)[C@H](O)[C@H](O)[C@H]2O)cc1)Nc1ccc(OCCCCOc2ccc(NC(=O)CCc3ccc(O[C@@H]4O[C@H](CO)[C@H](O)[C@H](O)[C@H]4O)cc3)cn2)nc1 [Compound J2]	3400 ± 1300	25.1 ± 1.9	0.0068 ± 0.00265	267 ± 84 x10^3/Ms	118	13.7 ± 1.7 (≈ 12.3 µg/mL)	3.8 ± 0.5	-12.6 ± 1.8	0.61 ± 0.06	3.8 ± 0.5	-9.7 ± 0.2	-13.5 ± 0.4	79.5 ± 32.8	59.9 nM and 52.9 nM and 126 nM	66	0.53 and 0.62 and 0.69	-10.1 cal/mol/K and -13.8 cal/mol/K and -14.0 cal/mol/K	-9.9 kcal/mol (2×) and -9.4 kcal/mol	-14.0 kcal/mol and -12.9 kcal/mol and -13.5 kcal/mol
